Measurements from ChEMBL document CHEMBL6182856, “Novel one-/two-photon excited carbazole/quinolinium photosensitizers manifest nanomolar and hypoxia-resistant tumor photodynamic therapy by accelerating apoptosis, ferroptosis, and autophagy” (Eur J Med Chem, 2025).
Activity calls are given as the source filed them. No cut-off for these calls is given here.

Legend:
A549 [1] = experiment: Induction of mitochondrial damage in human A549 cells assessed as increase in ratio of green to red fluorescence intensity measured upon light irradiation by JC-1 staining based fluorescence analysis relative to control; type: functional
[2] = Photosensitizing ability of the compound in methanol assessed as singlet oxygen production by measuring quantum yield measured upon irradiation by DPBF based assay; type: functional
[3] = Photosensitizing ability of the compound in methanol assessed as time duration of singlet oxygen production measured upon irradiation by DPBF based assay; type: functional
[4] = Photostability of the compound measured after 30 mins of light irradiation by UV absorption based analysis; type: physicochemical; conditions: 0.5 h
[5] = Phototoxicity against human A549 cells assessed as inhibition of cell growth incubated for 24 hrs measured under normoxia conditions and after two-photon excitation upon irradiation with light at 808 nm, 200 mW/cm2 for 10 mins by MTT assay; type: functional, cell-based; conditions: A549, light or radiation study
[6] = Phototoxicity against human A549 cells assessed as inhibition of cell growth incubated for 24 hrs measured under normoxia conditions and after one-photon excitation upon irradiation with light at 520 nm, 200 mW/cm2 for 10 mins by MTT assay; type: functional, cell-based; conditions: A549, light or radiation study
[7] = Phototoxicity against human A549 cells assessed as inhibition of cell growth at 1.56 to 400 nM incubated for 24 hrs measured under normoxia conditions and after one-photon excitation upon irradiation with light at 520 nm, 200 mW/cm2 for 10 mins by MTT assay relative to control; type: functional; conditions: dose 1.56-400 nM
4T1 = experiment: Cytotoxicity against mouse 4T1 cells assessed as inhibition of cell growth incubated for 24 hrs measured under normoxia conditions by MTT assay; type: functional, cell-based; conditions: 4T1, 24 h
[8] = Phototoxicity against human HT-29 cells assessed as inhibition of cell growth incubated for 24 hrs measured under normoxia conditions and after one-photon excitation upon irradiation with light at 520 nm, 200 mW/cm2 for 10 mins by MTT assay; type: functional, cell-based; conditions: HT-29, light or radiation study
[9] = Phototherapeutic index, ratio of IC50 for cytotoxicity against human A549 cells measured under normoxia conditions to IC50 for phototoxicity against human A549 cells measured under normoxia conditions and after one-photon excitation upon irradiation with light at 520 nm, 200 mW/cm2 for 10 mins; type: functional
[10] = Phototherapeutic index, ratio of IC50 for cytotoxicity against human HT-29 cells measured under normoxia conditions to IC50 for phototoxicity against human HT-29 cells measured under normoxia conditions and after one-photon excitation upon irradiation with light at 520 nm, 200 mW/cm2 for 10 mins; type: functional
A549 [11] = experiment: Cytotoxicity against human A549 cells assessed as inhibition of cell growth incubated for 24 hrs measured under hypoxia conditions by MTT assay; type: functional, cell-based; conditions: A549, 24 h
[12] = Phototoxicity against human A549 cells assessed as inhibition of cell growth incubated for 24 hrs measured under hypoxia conditions and after one-photon excitation upon irradiation with light at 520 nm, 200 mW/cm2 for 10 mins by MTT assay; type: functional, cell-based; conditions: A549, light or radiation study
[13] = Selectivity index, ratio of IC50 for cytotoxicity against human HFL1 cells measured under normoxia conditions to IC50 for phototoxicity against human A549 cells measured under normoxia conditions and after one-photon excitation upon irradiation with light at 520 nm, 200 mW/cm2 for 10 mins; type: toxicity, cell-based; conditions: HFL1 cells versus A549 cells, read-out: Ratio IC50
[14] = Selectivity index, ratio of IC50 for cytotoxicity against human HFL1 cells measured under normoxia conditions to IC50 for cytotoxicity against human A549 cells measured under normoxia conditions; type: toxicity, cell-based; conditions: HFL1 cells versus A549 cells, read-out: Ratio IC50
A549 [15] = experiment: Induction of apoptosis in human A549 cells assessed as increase in Bax expression measured upon light irradiation by western blot analysis relative to control; type: functional
A549 [16] = experiment: Induction of ROS generation in human A549 cells assessed as intracellular ROS level measured under normoxia conditions by DCFH-DA staining based fluorescence analysis; type: functional, cell-based
A549 [17] = experiment: Induction of ROS generation in human A549 cells assessed as intracellular superoxide level measured under normoxia conditions by DHE probe based fluorescence analysis; type: functional, cell-based
A549 [18] = experiment: Photosensitizing ability of the compound in human A549 cells assessed as increase in intracellular ROS generation by measuring increase in fluorescence intensity measured upon light irradiation under normoxia conditions by DCFH-DA staining based fluorescence analysis relative to FLI in cells without irradiation; type: functional
A549 [19] = experiment: Induction of mitochondrial damage in human A549 cells assessed as decrease in red fluorescence intensity measured upon light irradiation by JC-1 staining based fluorescence analysis; type: functional, cell-based
A549 [20] = experiment: Induction of apoptosis in human A549 cells assessed as viable cells measured under dark conditions by AnnexinV-FITC/PI staining based flow cytometric analysis (reference value: 99.7%); type: functional
A549 [21] = experiment: Induction of apoptosis in human A549 cells assessed as early apoptotic cells measured under dark conditions by AnnexinV-FITC/PI staining based flow cytometric analysis (reference value: 0.12%); type: functional
A549 [22] = experiment: Induction of apoptosis in human A549 cells assessed as viable cells measured upon light irradiation by AnnexinV-FITC/PI staining based flow cytometric analysis (reference value: 98.4%); type: functional
A549 [23] = experiment: Induction of apoptosis in human A549 cells assessed as necrotic cells measured upon light irradiation by AnnexinV-FITC/PI staining based flow cytometric analysis (reference value: 1.04%); type: functional
A549 [24] = experiment: Induction of DNA damage in human A549 cells assessed as increase in gammaH2AX expression measured upon light irradiation by western blot analysis relative to control; type: functional
A549 [25] = experiment: Induction of ferroptosis in human A549 cells assessed as increase in lipid peroxidation by measuring decrease in GPX4 protein expression measured upon irradiation by western blot analysis relative to control; type: functional
A549 [26] = experiment: Induction of ferroptosis in human A549 cells assessed as increase in lipid peroxidation by measuring increase in green-to-red fluorescence ratio measured upon irradiation by BODIPY 581/591C11 probe based confocal imaging analysis relative to control; type: functional
A549 [27] = experiment: Induction of autophagy in human A549 cells assessed as increase in Beclin-I expression measured upon light irradiation by western blot analysis relative to control; type: functional
[28] = Toxicity against mouse xenografted with human A549 cells assessed as changes in body weight administered intratumorally on day 0 and 7 and measured for 15 days; conditions: in vivo, other, 360 h, route it(Intratumoral), time 15 day
[29] = Toxicity against mouse xenografted with human A549 cells assessed as changes in body weight administered intratumorally followed by exposure to light on day 0 and 7 and measured for 15 days; conditions: in vivo, other, 360 h, route it(Intratumoral), time 15 day
[30] = Toxicity against mouse xenografted with human A549 cells assessed as changes in biochemical indicators administered intratumorally on day 0 and 7 and measured on day 15; conditions: in vivo, other, 360 h, route it(Intratumoral), time 15 day
[31] = Toxicity against mouse xenografted with human A549 cells assessed as changes in biochemical indicators administered intratumorally followed by exposure to light on day 0 and 7 and measured on day 15; conditions: in vivo, other, 360 h, route it(Intratumoral), time 15 day
[32] = Toxicity against mouse xenografted with human A549 cells assessed as changes in hematological indicators administered intratumorally on day 0 and 7 and measured on day 15; conditions: in vivo, other, 360 h, route it(Intratumoral), time 15 day
[33] = Photosensitizing ability of the compound assessed as hydroxyl radical production upon irradiation by HPF probe based assay relative to control; type: functional
[34] = Photosensitizing ability of the compound assessed as hydroxyl radical production upon irradiation by HPF probe based assay relative to KNKQ; type: functional
[35] = Photosensitizing ability of the compound assessed as hydroxyl radical production upon irradiation by HPF probe based assay relative to RuB; type: functional

For `CCn1c2ccc(/C=C/c3cc[n+](C)c4ccccc34)cc2c2cc(N(c3ccccc3)c3ccccc3)ccc21.[I-]`, the “fold change (FC)” value (A549 [1]) was roughly 100, the Activity [2] was 0.38 and the TIME [3] was less than 0.133 h. For the same compound, the Stability [4] was “Stable”, the IC50 [5] was 130 nM and the IC50 [6] was 27 nM. For the same compound, the “inhibition (INH)” value [7] was 24.4%, the IC50 (4T1) was 1080 nM and the IC50 [8] was 29 nM. The “Ratio IC50” value [9] was 54, the “Ratio IC50” value [10] was 51 and the IC50 (A549 [11]) was 1970 nM. The IC50 [12] was 43 nM, the selectivity ratio at 10 min [13] was 330 and the selectivity ratio [14] was 6. The “fold change (FC)” value (A549 [15]) was 5, the Activity (A549 [16]) was “inactive” and the Activity (A549 [17]) was “inactive”. The “fold change (FC)” value (A549 [18]) was 4, the Activity (A549 [19]) was “Active” and the Activity (A549 [20]) was 50.4%. For the same compound, the Activity (A549 [21]) was 18.1%, the Activity (A549 [22]) was 7.29% and the Activity (A549 [23]) was 2.56%. For the same compound, the “fold change (FC)” value (A549 [24]) was 4, the “fold change (FC)” value (A549 [25]) was 3.3 and the “fold change (FC)” value (A549 [26]) was 24. The “fold change (FC)” value (A549 [27]) was 2, the Activity [28] was “Non-toxic” and the Activity [29] was “Non-toxic”. The Activity [30] was “Non-toxic”, the Activity [31] was “Non-toxic” and the Activity [32] was “Non-toxic”. For the same compound, the fold change (FC) [33] was 60, the fold change (FC) [34] was 3 and the fold change (FC) [35] was 3.
